≈ marks a conversion by molar mass, not a printed value. Read-outs that look alike come from different tables or passages of the source.
Assays:
[1] = compound concentration 10 ppm, foliar spray, evaluated 7 days after inoculation
Human ACC2 = Human ACC2 (Homo sapiens, UniProt O00763); experiment: In vitro ACC2 inhibition assay (ADP-Glo), human ACC2; assay type: biochemical; details: 5 nM ACC2, 20 μM ATP, 20 μM acetyl-CoA
Botrtyis cinerea (Bc) = experiment: Growth inhibition assay of fungal pathogens, Bc; assay type: cell-based; details: read-out: Concentration at 90% Inhibition, Bc
Protocol: (§1) Compounds of the present invention were evaluated in a growth inhibition assay to determine the ability to control the growth of fungal pathogens, such as Botrtyis cinerea (Bc). Collectotrichum graminicola (Cg), Diplodia maydis (Dm), Fusarium moniliforme (Fm), Fusarium virguliforme (Fv), Phytophthora capsici (Pc), Rhizoctonia solani (Rs), and Septoria tritici (St). Compounds to be tested were dissolved in DMSO at 2.5 mg/ml to produce compound stock solutions (“stocks”). Stocks were diluted with DMSO by a five-fold dilution in a 96-well stock plate, and two sets of final concentrations of 50, 10, and 2 ppm or 2, 0.4, and 0.08 ppm were obtained in vitro. A set of positive controls was also prepared, with various concentrations of Soraphen (2, 0.4, and 0.08 ppm), Metalaxyl (1.1, 0.22, and 0.04 ppm), and Metconazole (2, 0.4, and 0.08 ppm or 0.2, 0.04, and 0.008 ppm) after the five-fold dilutions. Negative controls on each plate included 2% DMSO, water, and a blank (media+2% DMSO). Fungal spores were isolated from previously sub-cultured plates of Botrtyis cinerea (Bc), Collectotrichum graminicola (Cg), Diplodia maydis (Dm), Fusarium moniliforme (Fm), Fusarium virguliforme (Fv), Phytophthora capsici (Pc), and Septoria tritici (St). The isolated spores were diluted to individual concentrations with a 17% V8 liquid media. For Rhizoctonia solani (Rs) and Pythium irregulare, 1.5 mm mycelial plugs were used in place of spores and ¼ Potato Dextrose Broth (PDB) was used for dilution. The spore concentrations and plug sizes were based on growth curves generated at 48 hours for each pathogen. In a second 96-well plate, the spores or mycelial plugs, media, diluted compound solutions, and controls were combined. Once the compound was added, a true final concentration of compound in each well was measured by an OD600 reading, which adjusted for any compound precipitation that might have occurred in the well. Plate readings were repeated at both 24 and 48 hours. The blank negative control was used as a background subtraction. Additional visual ratings were performed at both 24 and 48 hours for checking on precipitation and confirming efficacy. Visual and OD600 ratings of the compounds at 48 hours were compared to the 2% DMSO negative control, and the percent of pathogen growth inhibition was determined based on those values.

[2] = system: Collectotrichum graminicola (Cg); experiment: Growth inhibition assay of fungal pathogens, Cg; assay type: cell-based; details: read-out: Concentration at 90% Inhibition, Cg
Protocol: as §1

Diplodia maydis (Dm) = experiment: Growth inhibition assay of fungal pathogens, Dm; assay type: cell-based; details: Stenocarpella maydis, read-out: Concentration at 90% Inhibition, Dm
Protocol: as §1

[3] = system: Fusarium moniliforme (Fm); experiment: Growth inhibition assay of fungal pathogens, Fm; assay type: cell-based; details: Fusarium verticillioides, read-out: Concentration at 90% Inhibition, Fm
Protocol: as §1

[4] = system: Fusarium virguliforme (Fv); experiment: Growth inhibition assay of fungal pathogens, Fv; assay type: cell-based; details: read-out: Concentration at 90% Inhibition, Fv
Protocol: as §1

[5] = system: Phytophthora capsici (Pc); experiment: Growth inhibition assay of fungal pathogens, Pc; assay type: cell-based; details: read-out: Concentration at 90% Inhibition, Pc
Protocol: as §1

Rhizoctonia solani (Rs) = experiment: Growth inhibition assay of fungal pathogens, Rs; assay type: cell-based; details: read-out: Concentration at 90% Inhibition, Rs
Protocol: as §1

Septoria tritici (St) = experiment: Growth inhibition assay of fungal pathogens, St; assay type: cell-based; details: Zymoseptoria tritici, read-out: Concentration at 90% Inhibition, St
Protocol: as §1

[6] = system: Blumeria graminis f sp. hordei; experiment: Foliar protection test, barley powdery mildew control; assay type: in vivo, Blumeria graminis f sp. hordei on Hordeum vulgare cv. Perry; details: 168 h, read-out: Barley Powdery Mildew Control at 50 ppm
Protocol: Compounds of the present invention were evaluated in a foliar protection test to determine the ability to control barley powdery mildew. Plants (Hordeum vulgare cv. Perry) were grown for 6 days in 2-inch square pots containing Metromix 200 medium amended with fertilizer. For propagation, plants were maintained in a growth chamber at conditions of 20 to 21° C., 16 hour light cycle, 400 uM of light, 70% humidity, and with sub-irrigation as needed. After inoculation with the pathogen of Blumeria graminis f sp. hordei, plants were kept at conditions of 20 to 22° C., 70% relative humidity, and 200 uM of light to facilitate infection and disease development. At 6 days after planting (1st true leaf fully expanded), the test compounds were dissolved in a solution of 5% acetone and 0.005% Tween 80 surfactant. An atomizer was used for applying the solution onto both sides of the leaves until thoroughly wetted. The amount of the compound applied to the leaves was typically 200, 100, 50, 10, or 2 ppm, but it may vary. At 24 hours after treatment, the plants were moved to a cooler chamber and inoculated by shaking well-colonized, untreated stock plants above the treated plants. This allowed producing a settling cloud of spores and resulting in uniform infection. Efficacy was evaluated in 7 days later by examining leaves for colonization and growth of mildew. Table 5 lists the results of barley powdery mildew control at a compound concentration of 50 ppm or 10 ppm. Compounds having an activity designated as “AA” provided a compound having >85% control of barley powdery mildew; compounds having an activity designated as “A” provided a compound having from 70% to 84% control of barley powdery mildew; compounds having an activity designated as “B” provided a compound having from 50 to 69% control of barley powdery mildew; compounds having an activity designated as “C” provided a compound having from 25 to 49% control of barley powdery mildew; and compounds having an activity designated as “D” provided a compound having <25% control of barley powdery mildew.

Fungal ACC2 = Fungal ACC2 (UniProt Q00955); details: read-out: Fungal ACC2 (IC50, in vitro ACC2 inhibition)
Fungal ACC2, sequence (Q00955 whole entry): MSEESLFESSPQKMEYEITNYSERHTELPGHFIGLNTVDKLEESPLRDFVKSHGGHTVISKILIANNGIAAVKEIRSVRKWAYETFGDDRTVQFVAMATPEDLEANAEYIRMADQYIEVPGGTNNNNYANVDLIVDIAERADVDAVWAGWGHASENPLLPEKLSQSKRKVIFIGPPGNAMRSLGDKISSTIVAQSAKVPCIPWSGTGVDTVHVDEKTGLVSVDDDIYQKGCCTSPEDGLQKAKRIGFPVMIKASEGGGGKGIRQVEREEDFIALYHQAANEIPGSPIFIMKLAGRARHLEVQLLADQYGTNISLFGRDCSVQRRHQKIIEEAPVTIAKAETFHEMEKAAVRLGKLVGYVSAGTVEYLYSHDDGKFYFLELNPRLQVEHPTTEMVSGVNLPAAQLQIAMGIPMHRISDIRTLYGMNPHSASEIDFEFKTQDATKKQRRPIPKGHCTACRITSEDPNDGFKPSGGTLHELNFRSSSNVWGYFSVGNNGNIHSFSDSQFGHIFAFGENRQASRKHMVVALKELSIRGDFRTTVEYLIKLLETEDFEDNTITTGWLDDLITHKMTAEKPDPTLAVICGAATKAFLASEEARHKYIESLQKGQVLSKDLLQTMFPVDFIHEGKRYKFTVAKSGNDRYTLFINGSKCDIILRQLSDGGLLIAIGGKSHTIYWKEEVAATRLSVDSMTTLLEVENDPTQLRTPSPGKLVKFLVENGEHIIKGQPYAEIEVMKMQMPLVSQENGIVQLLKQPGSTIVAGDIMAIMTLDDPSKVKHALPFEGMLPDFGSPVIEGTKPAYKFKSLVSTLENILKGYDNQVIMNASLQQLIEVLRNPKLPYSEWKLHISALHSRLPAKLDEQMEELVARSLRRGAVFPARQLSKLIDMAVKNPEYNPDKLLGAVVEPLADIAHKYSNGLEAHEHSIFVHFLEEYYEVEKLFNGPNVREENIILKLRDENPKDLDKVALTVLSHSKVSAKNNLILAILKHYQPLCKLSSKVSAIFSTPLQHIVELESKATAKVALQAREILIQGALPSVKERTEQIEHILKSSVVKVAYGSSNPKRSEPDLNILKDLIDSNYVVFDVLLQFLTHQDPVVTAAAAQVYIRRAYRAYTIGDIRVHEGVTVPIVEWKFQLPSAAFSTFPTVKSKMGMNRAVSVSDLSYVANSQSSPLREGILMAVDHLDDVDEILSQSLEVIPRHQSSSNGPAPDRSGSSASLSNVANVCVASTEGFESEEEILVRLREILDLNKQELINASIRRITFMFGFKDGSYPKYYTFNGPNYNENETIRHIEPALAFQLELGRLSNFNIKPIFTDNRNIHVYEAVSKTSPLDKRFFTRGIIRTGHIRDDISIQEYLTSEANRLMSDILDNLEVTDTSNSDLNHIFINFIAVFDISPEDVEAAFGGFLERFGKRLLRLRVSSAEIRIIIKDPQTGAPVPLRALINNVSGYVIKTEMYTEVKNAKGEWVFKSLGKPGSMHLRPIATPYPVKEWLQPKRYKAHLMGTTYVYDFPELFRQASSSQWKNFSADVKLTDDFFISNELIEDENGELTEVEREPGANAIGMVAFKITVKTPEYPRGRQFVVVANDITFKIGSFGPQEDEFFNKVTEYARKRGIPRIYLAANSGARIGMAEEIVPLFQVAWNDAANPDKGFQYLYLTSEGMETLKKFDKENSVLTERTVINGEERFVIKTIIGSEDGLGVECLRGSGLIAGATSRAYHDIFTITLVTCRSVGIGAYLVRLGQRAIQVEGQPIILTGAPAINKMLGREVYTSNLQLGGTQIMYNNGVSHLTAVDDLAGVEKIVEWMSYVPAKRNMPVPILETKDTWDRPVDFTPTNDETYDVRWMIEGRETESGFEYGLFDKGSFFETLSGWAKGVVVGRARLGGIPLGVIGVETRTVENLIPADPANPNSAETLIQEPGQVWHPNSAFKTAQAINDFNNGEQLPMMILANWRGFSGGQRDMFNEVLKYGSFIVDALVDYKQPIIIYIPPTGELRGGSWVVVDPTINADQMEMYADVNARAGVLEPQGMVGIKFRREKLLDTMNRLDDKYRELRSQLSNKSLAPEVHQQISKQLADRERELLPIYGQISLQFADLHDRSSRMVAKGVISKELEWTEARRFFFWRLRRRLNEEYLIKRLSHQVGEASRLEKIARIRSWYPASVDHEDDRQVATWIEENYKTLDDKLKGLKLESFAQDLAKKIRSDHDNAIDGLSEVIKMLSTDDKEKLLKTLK

Human ACC2, sequence (O00763 whole entry): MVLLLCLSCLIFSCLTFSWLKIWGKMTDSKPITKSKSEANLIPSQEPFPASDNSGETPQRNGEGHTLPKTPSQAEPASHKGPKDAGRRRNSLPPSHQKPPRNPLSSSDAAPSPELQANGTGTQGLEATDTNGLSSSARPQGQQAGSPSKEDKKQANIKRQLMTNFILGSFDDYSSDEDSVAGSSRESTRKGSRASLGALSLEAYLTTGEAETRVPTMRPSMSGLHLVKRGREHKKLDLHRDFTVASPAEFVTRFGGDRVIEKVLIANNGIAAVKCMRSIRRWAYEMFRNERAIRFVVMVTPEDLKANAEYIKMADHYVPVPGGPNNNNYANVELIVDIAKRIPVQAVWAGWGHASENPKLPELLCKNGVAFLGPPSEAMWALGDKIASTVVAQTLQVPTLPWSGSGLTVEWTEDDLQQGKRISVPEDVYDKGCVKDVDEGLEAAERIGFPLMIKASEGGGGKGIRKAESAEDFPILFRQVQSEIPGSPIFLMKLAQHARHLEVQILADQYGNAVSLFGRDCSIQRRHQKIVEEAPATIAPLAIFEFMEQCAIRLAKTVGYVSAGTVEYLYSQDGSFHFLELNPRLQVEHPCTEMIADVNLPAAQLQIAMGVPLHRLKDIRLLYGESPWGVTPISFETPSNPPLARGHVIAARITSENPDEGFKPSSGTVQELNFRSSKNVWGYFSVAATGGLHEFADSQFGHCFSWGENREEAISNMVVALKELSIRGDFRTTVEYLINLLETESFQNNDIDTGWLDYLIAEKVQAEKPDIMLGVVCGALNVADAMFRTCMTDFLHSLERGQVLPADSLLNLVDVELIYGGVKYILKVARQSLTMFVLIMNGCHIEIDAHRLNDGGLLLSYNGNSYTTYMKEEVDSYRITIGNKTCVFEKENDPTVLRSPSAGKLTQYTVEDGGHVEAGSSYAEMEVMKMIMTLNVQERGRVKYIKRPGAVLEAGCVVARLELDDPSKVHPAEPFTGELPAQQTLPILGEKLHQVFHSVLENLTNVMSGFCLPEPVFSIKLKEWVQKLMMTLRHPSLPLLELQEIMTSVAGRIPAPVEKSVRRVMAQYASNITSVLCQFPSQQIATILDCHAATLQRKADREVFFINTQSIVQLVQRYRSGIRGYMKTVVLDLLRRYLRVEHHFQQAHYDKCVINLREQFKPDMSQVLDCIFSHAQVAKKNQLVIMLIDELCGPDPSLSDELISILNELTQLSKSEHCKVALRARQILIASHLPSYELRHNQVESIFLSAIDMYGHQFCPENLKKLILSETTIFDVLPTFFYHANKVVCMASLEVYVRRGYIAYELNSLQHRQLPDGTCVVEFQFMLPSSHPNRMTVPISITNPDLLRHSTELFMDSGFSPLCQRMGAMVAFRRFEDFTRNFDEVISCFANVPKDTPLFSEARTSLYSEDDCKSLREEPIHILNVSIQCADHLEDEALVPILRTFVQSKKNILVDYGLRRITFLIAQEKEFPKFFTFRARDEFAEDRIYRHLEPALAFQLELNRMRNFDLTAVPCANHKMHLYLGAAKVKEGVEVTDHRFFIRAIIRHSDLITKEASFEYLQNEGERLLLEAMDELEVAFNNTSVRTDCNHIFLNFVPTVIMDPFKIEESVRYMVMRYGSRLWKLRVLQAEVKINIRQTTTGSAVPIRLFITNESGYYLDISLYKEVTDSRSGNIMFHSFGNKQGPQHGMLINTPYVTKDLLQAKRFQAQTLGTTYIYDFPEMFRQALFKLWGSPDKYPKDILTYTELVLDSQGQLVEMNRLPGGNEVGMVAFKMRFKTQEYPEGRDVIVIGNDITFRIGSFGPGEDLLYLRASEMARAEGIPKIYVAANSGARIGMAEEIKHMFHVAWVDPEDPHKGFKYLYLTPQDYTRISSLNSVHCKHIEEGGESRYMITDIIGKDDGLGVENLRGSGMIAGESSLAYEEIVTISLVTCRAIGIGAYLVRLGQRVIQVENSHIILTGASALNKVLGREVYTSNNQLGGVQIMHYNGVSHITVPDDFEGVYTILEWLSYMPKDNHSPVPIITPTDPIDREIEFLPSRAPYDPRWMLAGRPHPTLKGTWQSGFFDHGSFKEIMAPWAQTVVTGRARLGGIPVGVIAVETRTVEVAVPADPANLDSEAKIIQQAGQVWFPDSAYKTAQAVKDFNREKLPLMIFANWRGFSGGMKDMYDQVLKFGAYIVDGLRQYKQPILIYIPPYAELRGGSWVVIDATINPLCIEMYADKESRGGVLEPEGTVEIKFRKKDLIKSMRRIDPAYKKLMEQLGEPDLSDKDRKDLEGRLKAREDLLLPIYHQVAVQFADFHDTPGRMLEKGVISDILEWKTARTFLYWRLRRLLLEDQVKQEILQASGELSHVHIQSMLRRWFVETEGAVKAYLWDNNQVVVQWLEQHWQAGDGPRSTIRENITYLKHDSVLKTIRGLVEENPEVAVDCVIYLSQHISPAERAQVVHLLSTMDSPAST

SMILES	Barley Powdery Mildew Control at 10 ppm [1]	IC50 (Human ACC2)	IC90 (Botrtyis cinerea (Bc); 48 h)	IC90 ([2]; 48 h)	IC90 (Diplodia maydis (Dm); 48 h)	IC90 ([3]; 48 h)	IC90 ([4]; 48 h)	IC90 ([5]; 48 h)	IC90 (Rhizoctonia solani (Rs); 48 h)	IC90 (Septoria tritici (St); 48 h)	pest or weed control at 50 ppm ([6]; foliar)	IC50 (Fungal ACC2)	also measured
COCCO[C@@H](Cn1c(=O)n([C@H]2CCNC2=O)c(=O)c2c(C)c(-n3nccn3)sc21)c1cc(F)ccc1OC [Compound I-25, 1-((R)-2-(5-fluoro-2-methoxyphenyl)-2-(2-methoxy-ethoxy)ethyl)-5-methyl-3-((S)-2-oxopyrrolidin-3-yl)-6-(2H-1,2,3-triazol-2-yl)thieno[2,3-d]pyrimidine-2,4(1H,3H)-dione]	D (provided a compound having <25% control of barley powdery mildew)	0.01 to 0.1 µM	> 50 µg/mL	> 50 µg/mL	> 50 µg/mL	10 µg/mL (≈ 17.9 µM)	> 50 µg/mL	> 50 µg/mL	> 50 µg/mL	> 50 µg/mL	50 to 69%	0.002 to 0.01 µM	–
COCCO[C@@H](Cn1c(=O)n([C@@H]2CCNC2=O)c(=O)c2c(C)c(-n3nccn3)sc21)c1cc(F)ccc1OC [Compound I-26, 1-((R)-2-(5-fluoro-2-methoxyphenyl)-2-(2-methoxy-ethoxy)ethyl)-5-methyl-3-((R)-2-oxopyrrolidin-3-yl)-6-(2H-1,2,3-triazol-2-yl)thieno[2,3-d]pyrimidine-2,4(1H,3H)-dione]	D (provided a compound having <25% control of barley powdery mildew)	0.002 to 0.01 µM	10 µg/mL (≈ 17.9 µM)	> 50 µg/mL	> 50 µg/mL	2 µg/mL (≈ 3.58 µM)	10 µg/mL (≈ 17.9 µM)	> 50 µg/mL	> 50 µg/mL	> 50 µg/mL	70 to 84%	0.0007 to 0.002 µM	–
COc1ccc(F)cc1[C@H](Cn1c(=O)n([C@H]2CCCN(C(C)C)C2=O)c(=O)c2c(C)c(-n3nccn3)sc21)OCCO [Compound I-74, 1-((R)-2-(5-fluoro-2-methoxyphenyl)-2-(2-hydroxy-ethoxy)ethyl)-3-((S)-1-isopropyl-2-oxopiperidin-3-yl)-5-methyl-6-(2H-1,2,3-triazol-2-yl)thieno[2,3-d]pyrimidine-2,4(1H,3H)-dione]	D (provided a compound having <25% control of barley powdery mildew)	0.01 to 0.1 µM	–	–	–	–	–	–	–	–	–	–	IC90 (Botrtyis cinerea (Bc); 48 hours): 2 µg/mL (≈ 3.33 µM); IC90 ([2]; 48 hours): 10 µg/mL (≈ 16.6 µM); IC90 (Diplodia maydis (Dm); 48 hours): 10 µg/mL (≈ 16.6 µM); IC90 ([3]; 48 hours): 2 µg/mL (≈ 3.33 µM); IC90 ([4]; 48 hours): 2 µg/mL (≈ 3.33 µM); IC90 ([5]; 48 hours): > 50 µg/mL; IC90 (Rhizoctonia solani (Rs); 48 hours): 2 µg/mL (≈ 3.33 µM); IC90 (Septoria tritici (St); 48 hours): > 50 µg/mL; pest or weed control at 50 ppm ([6]; compound concentration 50 ppm, foliar spray, evaluated 7 days after inoculation): 70 to 84%

From patent publication US20190330224A1, “ACC INHIBITORS AND USES THEREOF” (Gilead Apollo, LLC, priority 2015, published 2019)
